Experimental findings from patent publication US20220387466A1, “COMPOUNDS AND PHARMACEUTICAL COMPOSITIONS FOR PREVENTION AND/OR TREATMENT OF DYSBIOSIS AND ANTIBACTERIAL ANTIDOTES FOR MICROBIOME-PROTECTION” (priority 2019, published 2022) are described below.

The subject of assay [1] is B. vulgatus. As to the kind of experiment: Prestwick library screen for microbiome-protective antibiotic antagonists (growth AUC z-scores). Format: cell-based, Bacteroides vulgatus. To be noted: Doxycycline 0.08 μM + 20 μM drug, z-score of normalized growth AUC, two replicates.
For assay [2], the system named is B. uniformis. Described as above. Format: cell-based, Bacteroides uniformis. To be noted: z-score of normalized growth AUC, two replicates. An excerpt:
The inventors reasoned that it should be possible to identify drugs that selectively antagonize the effect of antibiotics on gut microbes, while retaining activity against pathogens. Therefore, the inventors screened the Prestwick library to identify antagonizing compounds to erythromycin or doxycycline on two abundant and prevalent gut microbes, B. vulgatus and B. uniformis.
Preparation of screening plates. The Prestwick Chemical Library was purchased from Prestwick Chemical Inc. and drugs were re-arrayed, diluted and stored in 96 well format as described before. The inventors prepared drug plates (2×drug concentration) in MGAM medium and stored them at −30° C. For each experiment, drug plates were thawed, supplemented with the respective antibiotic solution (freshly prepared in MGAM) and pre-reduced in the anaerobic chamber overnight. All rearranging and aliquoting steps were done using the Biomek FXP (Beckman Coulter) system.
Inoculation and screening conditions. Strains were grown twice overnight, the second overnight culture was diluted in MGAM to reach OD578 nm 0.04 (4×the desired starting OD). 25 μl of the diluted cultures were used to inoculate wells containing 50 μl of 2× concentrated Prestwick drug and 25 μl of the 4× concentrated antibiotic using the semi-automated, 96-well multi-channel pipette epMotion 96 (Eppendorf). Each well contained 1% DMSO, 20 μM of the Prestwick drug and a species-specific antibiotic concentration that was just inhibitory for the respective strain (0.625 μM for erythromycin, 0.04 μM doxycycline for B. uniformis and 0.08 μM doxycycline for B. vulgatus). Plates were sealed with breathable membranes (Breathe-Easy®) and OD578 was measured hourly after 30 sec of linear shaking with a microplate spectrophotometer (EON, Biotek) and an automated microplate stacker (Biostack 4, Biotek) fitted inside a custom-made incubator (EMBL Mechanical Workshop). Growth curves were collected up to 24 h. For each antibiotic, each species was screen in biological duplicates. All experiments included control wells of unperturbed growth (32 wells per run) and control wells for growth in the presence of the antibiotic only (8 wells per plate).
Analysis pipeline and hit calling: All growth curves within a plate were truncated at the transition time from exponential to stationary phase and converted to normalized AUCs using in-run control wells (no drug) as described before. The inventors then calculated z-scores based on these normalized AUCs, removed replicates with 8-fold differences in z-scores to eliminate noise effects, computed mean z scores across the two replicates and selected combinations with mean z-scores >3. This selection included 19 potential antibiotic antagonists and the inventors followed up on 14 of them (7 potential erythromycin and 7 potential doxycycline antagonists in either B. vulgatus or B. uniformis—see FIG. 4) in independent experiments.

The test system of assay [3] is B. uniformis. Put plainly: Validation of microbiome-protective antagonists (concentration-dependent growth rescue). Format: cell-based, Bacteroides uniformis. To be noted: antagonist gradient, normalized AUC >0.25 = growth rescue. As for the experimental part: (§1) Validation of microbiome-protective antagonists: In a first step, the inventors kept the erythromycin/doxycycline concentration constant (0.625 μM for erythromycin, 0.078 μM (B. vulgates)/0.039 μM (B. uniformis) for doxycycline) and tested concentration gradients of the potential antagonists with ranges depending on the antagonist's solubility. Compounds were purchased from independent vendors and dissolved at 100× starting concentration in DMSO. Eight 2-fold serial dilutions were prepared in 96-well plates with each row containing a different antagonist, sufficient control DMSO wells and wells with just the respective antibiotic (‘antibiotic-only’ control). These master plates were diluted in MGAM medium (50 μl) to 2×assay concentration and 25 μl freshly prepared antibiotic solution (4× test concentration) was added. Plates were pre-reduced overnight in an anaerobic chamber and inoculated with 25 μl of overnight cultures (prepared as described under “Growth conditions”) to reach a starting OD578 of 0.01 and 1% DMSO concentration. Growth was monitored hourly for 24 h after 30 sec of linear shaking. Experiments were performed in biological triplicates. For analysis, growth curves were converted into normalized AUCs (see above). The inventors accounted for residual growth in the presence of the antibiotic by subtracting the median normalized AUCs of the ‘antibiotic-only’ control per plate.

Assay [4] concerns B. vulgatus. The assay is described as above. To be noted: Doxycycline 0.078 μM constant, antagonist gradient, normalized AUC >0.25 = growth rescue. The assay is classed as cell-based, Bacteroides vulgatus. As for the experimental part:
as §1

The subject of assay [5] is B. vulgatus. As to the kind of experiment: 8x8 checkerboard assay for anaerobic commensals (antibiotic vs antagonist). The assay is classed as cell-based, Bacteroides vulgatus. From the text:
Checkerboard assays for anaerobic commensals: Validated antagonists were further investigated in 8×8 checkerboard assays, where both antibiotics and antagonists were titrated against each other. Such assays were first performed for the commensals that were originally screened (i. e. B. vulgatus and B. uniformis—4 replicates) and later expanded towards 6 further gut microbes (B. caccae, B. fragilis NT, B. ovatus, B. thetaiotaomicron, P. copri, P. distasonis—2 replicates). For vertical gradients, 2-fold serial dilutions of the antagonists were prepared first in 100× in DMSO and diluted in MGAM as described above (section ‘Validation of microbiome-protective antagonists’). Horizontal antibiotic dilution series were freshly prepared in MGAM at 4× final concentration in equidistant concentration steps. Both, vertical and horizontal dilution series were combined (50 μl of the antagonist gradients (2×) and 25 μl of the antibiotic gradients (4×)) in 96 well plates. Plates were pre-reduced under anaerobic conditions overnight, inoculated with 25 μl of diluted overnight culture (at 4× starting OD) and sealed with breathable membrane (Breathe-Easy®). Bacterial growth was monitored once per hour for 24 hours after 30 sec linear shaking (Eon+Biostack 4, Biotek) under anaerobic conditions. Growth curves were converted into normalized AUCs as described using in-plate controls to define unperturbed growth.

For assay [6], the system named is species of the order Bacteroidales. As to the kind of experiment: Antidote vs azithromycin across seven gut Bacteroidales (Example 4). The assay is classed as cell-based. To be noted: combination with azithromycin. As to the method: The antidotes dicumarol (first column), benzbromarone (second column) and tolfenamic acid (third column) were tested for their efficacy in antagonizing the macrolide antibiotic azithromycin across seven prevalent and abundant gut Bacteroidales (B. vulgatus, B. fragilis NT, B. thetaiotaomicron, P. copri, B. caccae, B. ovatus, P. distasonis). […] All drug concentrations are in μM.
In particular, they aimed at testing, whether these antidotes can also protect from other macrolides such as azithromycin, a clinically more relevant antibiotic.

The test system of assay [7] is synthetic gut commensal community of seven human gut commensals. As to the kind of experiment: Synthetic gut commensal community growth with macrolide and antidote (Example 5). Format: cell-based. As to conditions: erythromycin and azithromycin. An excerpt: Heat maps depict area under the growth curve (AUC) of a synthetic community consisting of seven human gut commensals. Shown is the median AUC of three individual replicates. All drug concentrations are in μM.
So far, antidote effects have only been analyzed in single or pure cultures. However, the human gut microbiome is a complex community of many different bacterial taxa that is usually not adequately mimicked in monocultures.

For assay [8], the system named is E. faecalis. Put plainly: Antidote with macrolide on enterococci (Example 6). The assay is classed as cell-based, Enterococcus faecalis. From the text:
Heat maps show median area under the growth curve (AUC) of three biologically independent replicates. […] All drug concentrations are in μM.
Here, the inventors expanded testing towards additional antidotes, and included the intestinal human pathogen Enterococcus faecalis.

The test system of another assay is E. faecium. As to the kind of experiment: Antidote with macrolide on enterococci (Example 6). Format: cell-based.
Assay [9] has as its system seven-member synthetic community including the pathogen E. faecalis. Put plainly: E. faecalis-containing synthetic community, community growth AUC (Example 7). The assay is classed as cell-based. An excerpt:
(§2) Heat maps show median area under the growth curve (AUC) of the seven-member synthetic community including the pathogen E. faecalis. The numbers within the heat map represent the total number of all E. faecalis viable cells for each erythromycin-antidote combination as determined by enumerating of E. faecalis colony forming units after plating on selective medium. All drug concentrations are in μM. n. d.=not detectable.
(§3) The inventors exposed synthetic communities that contained the intestinal gut pathogen E. faecalis to erythromycin, and evaluated rescue of gut commensals and simultaneous killing of the pathogen in the presence of antidotes.

Assay [10] concerns E. faecalis. Put plainly: E. faecalis-containing synthetic community, E. faecalis CFU on selective medium (Example 7). The assay is classed as cell-based, Enterococcus faecalis.
Text: as §2, §3

[11] abbreviates: Erythromycin 0.625 μM + 20 μM drug.
Where [12] appears, read: Doxycycline 0.04 μM + 20 μM drug.
Where [13] appears, read: erythromycin 1.15 μM + 40 μM dicumarol or 20 μM benzbromarone.

Counter-ions that a name gives are not always drawn.

Take `N#CC(c1ccc(Cl)cc1)c1c(Cl)cc(-n2ncc(=O)[nH]c2=O)cc1Cl` (stereo not shown) [Diclazuril]: the Mean z-score with B. vulgatus [1] came out at 3.117.

Regarding `CCCCCN(CCCCC)C(=O)C(CCC(=O)O)NC(=O)c1ccc(Cl)c(Cl)c1` (stereo not shown) [Lorglumide sodium salt], in the assay with B. uniformis [2] (setting [11]), the Mean z-score is listed as 6.106. Besides, in the assay on B. uniformis [3] (Erythromycin 0.625 μM constant), the Validation result was “TRUE”.

Regarding `CC[C@H](c1ccc(O)cc1)[C@@H](CC)c1ccc(O)cc1` [Hexestrol], the Mean z-score in the assay on B. uniformis [2] (setting [11]) was 9.630. Further, the Validation entry with B. uniformis [3] (Erythromycin 0.625 μM constant) is on record as “TRUE”.

As for `O=C(O)Cc1cc(I)c(Oc2ccc(O)c(I)c2)c(I)c1` [3,3′,5-triiodothyroacetic acid], in the assay with B. uniformis [2] (setting [12]), the Mean z-score is 4.333. In addition, the Validation result in the assay on B. uniformis [3] (Doxycycline 0.039 μM constant) is given as “TRUE”.

For the compound `O=C(O)c1cc(-c2ccc(F)cc2F)ccc1O` [Diflunisal], in the assay on B. vulgatus [1], the Mean z-score came to 3.265. For the same compound, the Validation result in the assay with B. vulgatus [4] is “TRUE”. Moreover, in the assay on B. vulgatus [5] (combination with doxycycline), the “rescue of B. vulgatus growth from doxycycline” value is “rescued”.

In the case of `Cc1ccc(Cl)c(Nc2ccccc2C(=O)O)c1Cl` [Meclofenamic acid sodium salt monohydrate], in the assay on B. vulgatus [1], the Mean z-score was 3.010.

Turning to `CC/C(=C(/CC)c1ccc(O)cc1)c1ccc(O)cc1` [Diethylstilbestrol], the results for the Mean z-score in the assay on B. vulgatus [1] and in the assay on B. uniformis [2] (setting [11]) were 3.296 and 9.258, respectively. Also, the Validation entry with B. uniformis [3] (Erythromycin 0.625 μM constant) is recorded as “TRUE”.

In the case of `CCC(Cc1c(I)cc(I)c(N)c1I)C(=O)O` (stereo not shown) [Iopanoic acid], in the assay on B. vulgatus [1], the Mean z-score is 5.698. In addition, the Validation result in the assay on B. vulgatus [4] is recorded as “TRUE”.

Take `CCCCc1nc(Cl)c(CO)n1Cc1ccc(-c2ccccc2-c2nn[nH]n2)cc1` [Losartan]: the Mean z-score in the assay with B. uniformis [2] (setting [12]) is 3.421. Moreover, the Validation entry in the assay with B. uniformis [3] (Doxycycline 0.039 μM constant) is listed as “FALSE”.

Turning to `Cc1ccc(-c2cc(C(F)(F)F)nn2-c2ccc(S(N)(=O)=O)cc2)cc1` [Celecoxib], in the assay with B. uniformis [2] (setting [12]), the Mean z-score is listed as 3.275.

In the case of `CCc1oc2ccccc2c1C(=O)c1cc(Br)c(O)c(Br)c1` [Benzbromarone], the Mean z-score in the assay on B. uniformis [2] (setting [11]) is 6.034. Besides, the Validation entry with B. uniformis [3] (Erythromycin 0.625 μM constant) is recorded as “FALSE”. Moreover, the “rescue of B. vulgatus growth from erythromycin” value with B. vulgatus [5] (combination with erythromycin) is “can rescue the growth”. In assay [6], the “protection of Bacteroidales species from azithromycin” value is “can be Protected”. Besides, the “protection (growth rescue) of synthetic gut commensal community from macrolide antibiotics” value in [7] is given as “can be Protected”. In addition, in the assay with E. faecalis [8], the “interaction with antibacterial effects of erythromycin/azithromycin” value is listed as “synergized” and the “rescue from erythromycin or azithromycin treatment” value is listed as “Neither dicumarol nor benzbromarone or tolfenamic acid could rescue”. In the assay on E. faecium, the “interaction with antibacterial effects of erythromycin/azithromycin” value is listed as “synergized” and the “rescue from erythromycin or azithromycin treatment” value is listed as “Neither dicumarol nor benzbromarone or tolfenamic acid could rescue”. For the same compound, in assay [9] (setting [13]), the “community growth (AUC)” value was “the community is rescued”. Besides, the “rescue of the community despite erythromycin treatment” value in assay [9] (erythromycin + antidote) was “rescue of the community”. The E. faecalis counts entry in the assay on E. faecalis [10] (setting [13]) was “drop/are still found at below the detection limit”. The “E. faecalis cells in community under erythromycin + antidote” value with E. faecalis [10] (erythromycin + antidote) is “efficiently inhibited”.

`CC(C)c1c(CN(C)C(C)Cc2ccccc2)n(C)n(-c2ccccc2)c1=O` (stereo not shown) [Famprofazone]: the Mean z-score with B. uniformis [2] (setting [11]) stood at 7.832. Also, the Validation entry with B. uniformis [3] (Erythromycin 0.625 μM constant) is reported as “FALSE”.

Turning to `O=C1Nc2ccc(Cl)cc2[C@@](C#CC2CC2)(C(F)(F)F)O1` [Efavirenz], in the assay with B. vulgatus [1], the Mean z-score turned out to be 3.138.

In the case of `Oc1cc(Cl)ccc1Oc1ccc(Cl)cc1Cl` [Triclosan], the Mean z-score with B. uniformis [2] (setting [12]) is on record as 3.066. Moreover, the Validation result in the assay on B. uniformis [3] (Doxycycline 0.039 μM constant) is given as “FALSE”.
